In PubChem BioAssay (NCI):
“And” between values parts separate entries of the source, which are not always exact repeats. Identical values can stand only once.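 1) Cells in 96-well plates. 2) Compound, 48 h, 5 concentrations. 3) Linear interpolation between surrounding doses. 4) Unreached endpoint = highest concentration. Abbreviation: GI50, concentration required for 50% inhibition of growth. TGI denotes the concentration required for complete inhibition of growth.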

Experiments:
Assay in all cases: growth of human tumour cells (NCI), 48 h
HCC-2998 colon = test system: HCC-2998 colon
HL-60(TB) leukemia = test system: HL-60(TB) leukemia
HOP-62 NSCLC = test system: HOP-62 NSCLC
KM20L2 colon = test system: KM20L2 colon
NCI-H522 lung = test system: NCI-H522 lung
SK-OV-3 ovarian = test system: SK-OV-3 ovarian
SNB-78 CNS = test system: SNB-78 CNS
TK-10 renal = test system: TK-10 renal
BT-549 breast = test system: BT-549 breast
MDA-MB-231 breast = test system: MDA-MB-231 breast

Row | SMILES | TGI (HCC-2998 colon) | TGI (HL-60(TB) leukemia) | TGI (HOP-62 NSCLC) | TGI (KM20L2 colon) | TGI (NCI-H522 lung) | TGI (SK-OV-3 ovarian) | TGI (SNB-78 CNS) | TGI (TK-10 renal) | GI50 (HCC-2998 colon) | GI50 (HL-60(TB) leukemia) | GI50 (HOP-62 NSCLC) | GI50 (KM20L2 colon) | GI50 (NCI-H522 lung) | GI50 (SK-OV-3 ovarian) | GI50 (SNB-78 CNS) | GI50 (TK-10 renal) | TGI (BT-549 breast) | TGI (MDA-MB-231 breast)
1 | CN1C(=O)C(=O)N2c3ccc(Cl)cc3C3(c4ccccc4)N=CC12O3 (configuration not stated) | 28.4 µM | 6.26 µM | 30.7 µM | 24.1 µM | 9.14 µM | 21.7 µM | 33.8 µM | 18.1 µM |  |  |  |  |  |  |  |  |  | 
2 | Cc1[cH-]c(=O)n(-c2ccccc2)n1.[Au+].[Au].c1ccc([PH+](c2ccccc2)c2ccccc2)cc1.c1ccc([PH+](c2ccccc2)c2ccccc2)cc1 | > 100 µM | 41.1 µM | 54 µM | > 100 µM | 51.5 µM | > 100 µM | > 100 µM | 31.9 µM | > 100 µM | 15.2 µM | 23.7 µM | 66.7 µM | 3.46 µM and 12.4 µM | 40.4 µM | 3.43 µM and 14.6 µM | 16.6 µM |  | 
3 | Clc1ccc2cccc3c2c1C1OC3c2ccccc21 (configuration not stated) | > 100 µM | > 100 µM | > 100 µM | > 100 µM | > 100 µM | > 100 µM | > 100 µM | > 100 µM |  |  |  |  |  |  |  |  |  | 
4 | CCC(C)SC1SCC2C(=O)N(C)C3(CC3C)C(=O)OCC(NC(=O)c3nc4ccccc4cc3O)C(=O)NC(C)C(=O)N(C)C1C(=O)N(C)C1(CC1C)C(=O)OCC(NC(=O)c1nc3ccccc3cc1O)C(=O)NC(C)C(=O)N2C (configuration not stated) | 0.000369 µM | 0.00488 µM | 0.00155 µM | 0.000446 µM | 0.00022 µM |  | 0.255 µM |  |  |  |  |  | 1.85e-05 µM |  |  | 0.000654 µM | 0.000693 µM | 0.000567 µM
5 | CN(C)CC1CCCC/C1=N/O (configuration not stated) | > 100 µM | > 100 µM | > 100 µM | > 100 µM | > 100 µM | > 100 µM | > 100 µM | > 100 µM |  |  |  |  |  |  |  |  |  | 
6 | CN(C)C=Nc1nc(=O)n(C2CCC(CO)O2)cc1F (configuration not stated) | > 100 µM | > 100 µM | > 100 µM | > 100 µM | > 100 µM | > 100 µM | > 100 µM | > 100 µM |  |  |  |  |  |  |  |  |  | 
7 | CCOc1ccc(NC2=CC(=O)C(=O)c3ccccc32)cc1 | 26 µM | 4.13 µM | 12 µM | 36.7 µM | 3.39 µM | 24.9 µM | 39.5 µM | 21.6 µM |  |  |  |  |  |  |  |  | 3.02 µM | 54.5 µM
8 | O=S1C(=c2ccc(=C3Sc4ccccc4S3)cc2)Sc2ccccc21 (configuration not stated) | 30.3 µM | > 100 µM | 31.6 µM | 31.9 µM | > 100 µM | 37 µM | > 100 µM | > 100 µM |  |  |  |  |  |  |  |  |  | 
9 | Cc1ccc(S(=O)(=O)N2CCC2c2ccccc2)cc1 (configuration not stated) | > 100 µM | 40.6 µM | > 100 µM | > 100 µM | > 100 µM | > 100 µM | > 100 µM | > 100 µM |  |  |  |  |  |  |  |  |  | 
10 | O=C(NC1C=CCC2C(=O)N(c3ccccc3)C(=O)C12)OCc1ccccc1 (configuration not stated) | > 100 µM | > 100 µM | > 100 µM | > 100 µM | > 100 µM | > 100 µM | > 100 µM | > 100 µM |  |  |  |  |  |  |  |  |  | 
